Some test systems named below: MOLT-4 leukemia; A549 NSCLC; NCI-H23 lung; SF-539 CNS; DU-145 prostate; OVCAR-4 ovarian; OVCAR-8 ovarian; HT29 colon; SNB-75 CNS; SK-MEL-2 melanoma; SK-OV-3 ovarian; MDA-MB-231 breast.
Common to all, as to experiment: NCI tumour cell line growth inhibition, 48 h

This is an account of results in PubChem BioAssay (NCI).

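How tested: cells in 96-well plates exposed to compound for 48 hours at five concentrations. The concentration for full growth arrest is given as TGI.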 Where a SMILES comes first, the peptide text is derived from it. The star is where a group is joined. Boc = CC(C)(C)OC(=O)*; Bn = c1ccc(C*)cc1

Regarding `CO/N=C(\C(=O)OC(=NC1CCCCC1)NC1CCCCC1)c1csc(NC(c2ccccc2)(c2ccccc2)c2ccccc2)n1`, the TGI in the assay on MOLT-4 leukemia, in the assay with A549 NSCLC, in the assay on NCI-H23 lung, in the assay on SF-539 CNS, with DU-145 prostate and in the assay on OVCAR-4 ovarian was above 10 µM each time. For the same molecule, the TGI with OVCAR-8 ovarian, with HT29 colon, in the assay with SNB-75 CNS, in the assay with SK-MEL-2 melanoma and in the assay with SK-OV-3 ovarian was above 10 µM in each case.

Take `CC1(C)[C@@H](Cn2ccc(=O)[nH]c2=O)CC[C@@]1(C)CO`: the TGI with A549 NSCLC, in the assay on MDA-MB-231 breast, in the assay on DU-145 prostate, in the assay on OVCAR-4 ovarian, in the assay with SNB-75 CNS and with SK-MEL-2 melanoma was above 100 µM throughout. Further, the TGI in the assay with SK-OV-3 ovarian is above 100 µM.

On to `CCn1c(-c2ccccc2)cs/c1=N\C(P(=O)(O)O)P(=O)(O)O`, for which the TGI in the assay with MOLT-4 leukemia, with A549 NSCLC, in the assay on NCI-H23 lung, in the assay on SF-539 CNS, in the assay with MDA-MB-231 breast and with DU-145 prostate was above 100 µM throughout. In addition, the TGI in the assay on OVCAR-8 ovarian, with HT29 colon, in the assay on SNB-75 CNS and with SK-OV-3 ovarian was above 100 µM each time.

For the molecule `CO[C@@]12C[C@@H](C)C3=CCC(C)=C3CC1=C(C)C(=O)O2`, the TGI in the assay on MOLT-4 leukemia, in the assay on NCI-H23 lung, with MDA-MB-231 breast, in the assay with OVCAR-4 ovarian, in the assay with OVCAR-8 ovarian and in the assay on HT29 colon was above 100 µM each time. The TGI in the assay with SNB-75 CNS, in the assay with SK-MEL-2 melanoma and in the assay with SK-OV-3 ovarian was above 100 µM throughout.

Regarding `Cc1ccc(-c2c(C#N)c(-c3ccc(C)cc3)n(NS(=O)(=O)c3ccccc3)c(=O)c2C#N)cc1`, the TGI was 64.7 µM in the assay with MOLT-4 leukemia; above 100 µM in the assay with A549 NSCLC; 61.2 µM with SF-539 CNS; above 100 µM with MDA-MB-231 breast; above 100 µM with OVCAR-4 ovarian; above 100 µM in the assay with OVCAR-8 ovarian. For the same molecule, the TGI with HT29 colon, with SNB-75 CNS, in the assay on SK-MEL-2 melanoma and with SK-OV-3 ovarian was above 100 µM each time.

As for `Cc1[nH]c(=O)nc2nc3ccc(Cl)cc3c(NCCNCCO)c12`, the TGI is above 100 µM with MOLT-4 leukemia; 33 µM in the assay on A549 NSCLC; 21.5 µM in the assay with NCI-H23 lung; 20.6 µM in the assay with SF-539 CNS; 24 µM in the assay with MDA-MB-231 breast; 29.4 µM in the assay on DU-145 prostate. The TGI stood at 26.2 µM in the assay with OVCAR-4 ovarian; 21.6 µM with OVCAR-8 ovarian; 21.9 µM in the assay on HT29 colon; 28.3 µM with SK-MEL-2 melanoma; 23.9 µM in the assay on SK-OV-3 ovarian.

As to `CCCNC(=O)NNC(=O)c1c[nH]c2nc(C)ccc2c1=O`, the TGI with MOLT-4 leukemia, with A549 NSCLC, with NCI-H23 lung, in the assay with MDA-MB-231 breast, with DU-145 prostate and in the assay with OVCAR-4 ovarian was above 100 µM in each case. The TGI in the assay with OVCAR-8 ovarian, in the assay with HT29 colon and in the assay on SK-MEL-2 melanoma was above 100 µM throughout.

For `COC(=O)C(CC(C)C)NC(=O)C(C)NC(=O)C(Cc1ccc(OCc2ccccc2)cc1)NC(=O)C(COCc1ccccc1)NC(=O)OC(C)(C)C` (configuration not stated) (Boc-S(Bn)Y(Bn)AL-OMe; configuration not given here), the TGI in the assay on MOLT-4 leukemia, in the assay with A549 NSCLC, with NCI-H23 lung, in the assay with SF-539 CNS, with DU-145 prostate and in the assay with OVCAR-4 ovarian was above 100 µM each time. In addition, the TGI in the assay on OVCAR-8 ovarian, with HT29 colon, in the assay on SNB-75 CNS and with SK-OV-3 ovarian was above 100 µM in each case.

For `O=C1/C(=C/c2ccc(Br)s2)NC(=S)N1c1ccccc1`, the TGI in the assay on MOLT-4 leukemia, with NCI-H23 lung, with MDA-MB-231 breast, in the assay on DU-145 prostate, in the assay on OVCAR-4 ovarian and with HT29 colon was above 100 µM in each case. For the same molecule, the TGI in the assay on SK-MEL-2 melanoma and with SK-OV-3 ovarian was above 100 µM in each case.

On to `CC(=O)OC(OC(C)=O)c1ccc2ccc3cccc4ccc1c2c34`, for which the TGI in the assay on MOLT-4 leukemia is above 100 µM; with A549 NSCLC, above 100 µM; with NCI-H23 lung it was 45.1 µM; in the assay with SF-539 CNS, above 100 µM; in the assay with MDA-MB-231 breast, 84.1 µM; in the assay with DU-145 prostate it was 45.8 µM. In addition, the TGI in the assay with OVCAR-8 ovarian was above 100 µM; in the assay with HT29 colon it was 38.3 µM; with SNB-75 CNS, 41.6 µM; in the assay on SK-OV-3 ovarian it was 53.4 µM.

Regarding `CCCC(=O)NC(NC1CCCCC1)(C(=O)OCC)C(F)(F)F` (configuration not stated), the TGI in the assay with MOLT-4 leukemia, in the assay on A549 NSCLC, with NCI-H23 lung, with SF-539 CNS, in the assay with DU-145 prostate and with OVCAR-4 ovarian was above 100 µM in each case. The TGI in the assay with OVCAR-8 ovarian, with HT29 colon, with SNB-75 CNS, with SK-MEL-2 melanoma and in the assay with SK-OV-3 ovarian was above 100 µM in each case.

With `Cc1ccc(/C=N/Nc2cc(C)c3cccc(C)c3n2)s1`, the TGI with MOLT-4 leukemia is 47.7 µM; in the assay with A549 NSCLC, 26.3 µM; in the assay on NCI-H23 lung, 35.2 µM; in the assay with SF-539 CNS, 41.1 µM; in the assay on DU-145 prostate, above 100 µM; with OVCAR-4 ovarian, above 100 µM. Also, the TGI was 26.9 µM in the assay on OVCAR-8 ovarian; 13 µM in the assay on HT29 colon; above 100 µM in the assay with SNB-75 CNS; 33.2 µM in the assay with SK-MEL-2 melanoma; 33.5 µM in the assay on SK-OV-3 ovarian.

Turning to `CCN(CC)Cc1ccc(C(=S)Nc2ccc(Cl)cc2)s1`, the TGI in the assay with MOLT-4 leukemia was 34.4 µM; in the assay on A549 NSCLC it was 25.4 µM; in the assay with NCI-H23 lung, 9.34 µM; in the assay with SF-539 CNS it was 31.6 µM; in the assay with DU-145 prostate, 29.7 µM; in the assay with OVCAR-4 ovarian, 34.6 µM. Further, the TGI turned out to be 18.2 µM with OVCAR-8 ovarian, 12 µM in the assay on HT29 colon, 32.1 µM in the assay with SK-MEL-2 melanoma and 29.7 µM in the assay with SK-OV-3 ovarian.
